How the values were obtained:
[1] = test system: diet-induced obese (DIO) mice; test: intraperitoneal glucose tolerance test (ipGTT), acute oral treatment (Experiments 1-5); type: in vivo, C57BL/6 mice; conditions: HFD 4 weeks
Procedure: (§1) For all experiments, 12-14 weeks old male C57BL/6 mice were obtained from the University of Otago animal facility. All procedures were approved by the University of Otago Animal Ethics Committee. Mice were housed individually under a 12:12 h light/dark cycle and ambient temperature was 23° C. Animals had either access to low-fat diet (LFD, containing 10% fat; cat. no. D12450B; Research Diets) or high-fat diet (HFD, containing 60% fat; cat. No. D12492; Research Diets) for a duration of 4 weeks, and water ad libitum. For each experiment a new cohort of animals was employed.
For all experiments, the formulations were prepared by forming an ethanol solution of the selected active ingredient(s), i.e. B, I or S individually, the mix or the extract, and then diluting to the desired concentration with 0.9 wt % NaCl aqueous solution.
To investigate whether the compounds either individually, a mixture of all three compounds (B, S and I; hereinafter referred to as “mix”) or the total extract of yellow Dahlia ‘Ruskin Diane’ petals acutely affect glucose homeostasis, intraperitoneal glucose tolerance tests (ipGTTs) were performed in diet-induced obese (DIO) mice as a model to mimic human prediabetes and impairments in glucose metabolism. Individual compounds, the mix or the total extract were dissolved in 0.9% NaCl containing 5% ethanol and administered orally. Mice (n=7-8/group) were fed either a high fat diet (HFD) or respective low fat diet (LFD) for 4 weeks, fasted for 16 h and received the different compounds/combinations or vehicle (0.9% NaCl containing 5% ethanol) by oral gavage. For example, for administration to a 50 g mouse, an oral gavage having a volume of 500 μl was prepared, the oral gavage contained 500 μg of extract or 50 μg of compound(s). The volume of the gavage administered was adjusted based on the weight of the mouse subject. Glucose (1.5 g/kg body weight; dissolved in 0.9% NaCl) was injected intraperitoneally (i.p.) 60 minutes after oral gavage treatment, and an ipGTT was performed. Blood glucose levels were measured using a commercially available glucometer (Accu-Check Performa; Roche) whilst truncating the tip of the tail with a fresh scalpel blade. For statistical validation, the area under the curve (AUC) was calculated.
These experiments establish dose responses of the individual compounds using different concentrations (20, 10, 3.3, 1, 0.33 mg/kg body weight), the mix (20, 10, 3.3, 1, 0.33 mg/kg body weight) or the extract (50, 20, 10, 3.3, 1 mg/kg) to determine the highest non-effective dose to allow for testing of synergism in combination with commercially available diabetes drugs in subsequent experiments. Mice were fed either LFD or HFD 4 weeks (Experiments 4 and 5). After mice were food deprived for 16 hours, an pGTT was carried out as previously described.
(§2) Data were analysed by one-way ANOVA or repeated measures ANOVA followed by multiple comparison test, as appropriate, using GraphPad Prism 5 software (Graphpad Software, Inc.). The results are presented as means ±SEM, and differences were considered significant if p≤0.05.

[2] = test system: diet-induced obese (DIO) mice; test: ipGTT after chronic metformin or pramlintide, alone or combined with the mix (Experiments 6-9); type: in vivo, C57BL/6 mice
Procedure: as §1
Separate cohorts of mice were treated with the respective control injections. Mice were fasted for 16 h and an ipGTT was performed as described.
After chronic treatment with the well described antidiabetic drugs mice were fasted for 16 h and received the mix acutely (0.33 mg/kg; containing 5% ethanol). 60 minutes later we carried out an ipGTT as described previously.
as §2

[3] = test system: phosphorylation of AKT (pAKT); test: central insulin signalling: pAKT immunoreactive cells in the arcuate nucleus (Experiment 10); type: in vivo, C57BL/6 mice; conditions: insulin 1 mg/kg 15 min before perfusion; LFD and HFD fed mice vs vehicle-injected
Procedure: To identify a mode of action of how the compounds, formulations and the extract affect glucose homeostasis, effects on central insulin signalling by measuring phosphorylation of AKT (pAKT) were investigated. AKT is the main target of insulin in the arcuate nucleus of the hypothalamus. To assess the degree of insulin action in the hypothalamus, phosphorylated AKT positive cells were counted. Mice were fed LFD or HFD for 4 weeks, fasted for 16 h and bodyweight matched. Sixty minutes before transcardial perfusion they received B (10 mg/kg), I (10 mg/kg), S (10 mg/kg), the mix (3.3 mg/kg of each compound), the extract (10 mg/kg) or vehicle (0.9% NaCl containing 5% ethanol) by oral gavage. Additionally, mice received an insulin (1 mg/kg) or vehicle injection 15 minutes before transcardial perfusion. Immunohistochemistry was carried out on mouse brain coronal cryosections as described previously in Benzler J, et al. Diabetes. […]
To investigate the molecular mechanisms and to identify the molecular targets of the mix and the extract, mice were fed either a HFD or LFD for 4 weeks followed by treatment with the mix (3.3 mg/kg body weight each) or the extract (10 mg/kg) acutely by oral gavage. […] The target protein of the insulin signalling pathway, pAKT, was visualized by immunohistochemistry and quantified by counting pAKT immunoreactive cells.

[4] = stability of extract and butein in vitro (RPLC); type: physicochemical
Procedure: Experiments were carried out on dissolving/dispersing Dahlia ‘Ruskin Diane’ extract into aqueous buffer. […] To confirm the cause of instability of the buffered extract, the stability of butein was assessed in aqueous buffer at pH7 (butein was stable at pH4). […] By contrast, butein was stable when diluted into EtOH and stored under ambient conditions (FIG. 16). […] The conversion of butein to sulfuretin is an oxidative cyclisation.

solubility = type: physicochemical; conditions: pH7 buffer solution
[5] = Experiment 1: 10 mg/kg (mix: 3.3 mg/kg of each compound) oral gavage 1 h before ipGTT, vs HFD control
[6] = Experiment 3: 3.3 mg/kg (each) orally 1 h before ipGTT

O=C1/C(=C/c2ccc(O)c(O)c2)Oc2cc(O)ccc21 [S, Sulfuretin]
glucose tolerance in ipGTT [1, 5]: significantly improve glucose tolerance | glucose tolerance in ipGTT [1, 6]: improved glucose tolerance

CN(C)C(=N)N=C(N)N [metformin]
glucose tolerance in ipGTT ([2]; Experiment 6: 300 mg/kg/d oral, twice daily, last 7 days, p=0.004 vs HFD control): improved glucose tolerance | highest dose that did not improve glucose tolerance ([2]; Experiment 6: oral gavage twice daily for last 7 days, HFD 4 weeks): 100 mg/kg body weight

Insulin: insulin (1 mg/kg) injected to activate the insulin signalling pathway
pAKT positive cells in the arcuate nucleus [3]: markedly increased pAKT positive cells

CC[C@H](C)[C@H](NC(=O)[C@@H]1CCCN1C(=O)CNC(=O)[C@H](Cc1ccccc1)NC(=O)[C@H](CC(N)=O)NC(=O)[C@H](CC(N)=O)NC(=O)[C@H](CO)NC(=O)[C@H](CO)NC(=O)[C@H](Cc1c[nH]cn1)NC(=O)[C@@H](NC(=O)[C@H](CC(C)C)NC(=O)[C@H](Cc1ccccc1)NC(=O)[C@H](CC(N)=O)NC(=O)[C@H](C)NC(=O)[C@H](CC(C)C)NC(=O)[C@H](CCCNC(=N)N)NC(=O)[C@H](CCC(N)=O)NC(=O)[C@@H](NC(=O)[C@H](C)NC(=O)[C@@H]1CSSC[C@H](NC(=O)[C@@H](N)CCCCN)C(=O)N[C@@H](CC(N)=O)C(=O)N[C@@H]([C@@H](C)O)C(=O)N[C@@H](C)C(=O)N[C@@H]([C@@H](C)O)C(=O)N1)[C@@H](C)O)C(C)C)C(=O)N[C@@H](CC(C)C)C(=O)N1CCC[C@H]1C(=O)N1CCC[C@H]1C(=O)N[C@H](C(=O)N[C@@H](CC(N)=O)C(=O)N[C@H](C(=O)NCC(=O)N[C@@H](CO)C(=O)N[C@@H](CC(N)=O)C(=O)N[C@H](C(=O)N[C@@H](Cc1ccc(O)cc1)C(N)=O)[C@@H](C)O)C(C)C)[C@@H](C)O [pramlintide]
glucose tolerance in ipGTT ([2]; Experiment 8: 1000 μg/kg/d s.c. twice daily for 5 days, p=0.0497 vs vehicle HFD): improved glucose tolerance | highest non-effective dose ([2]; Experiment 8: s.c. twice daily for last 5 days, HFD 4 weeks): 200 μg/kg/d body weight | glucose tolerance in ipGTT ([2]; Experiment 8: the other concentrations (200, 40, 8, 1.6 μg/kg/d s.c.)): no significant effect on glucose homeostasis | glucose tolerance in ipGTT ([2]; Experiment 9: pramlintide 200 μg/kg/d s.c. last 5 days and/or mix 0.33 mg/kg oral 1 h before ipGTT, vs HFD vehicle): neither pramlintide alone at 200 μg/kg/d body weight (FIG. 9A) nor the mix at 0.33 mg/kg body weight (FIG. 9B) was able to improve glucose tolerance

O=C(/C=C/c1ccc(O)cc1)c1ccc(O)cc1O [I, Isoliquiritigenin]
glucose tolerance in ipGTT [1, 5]: trend towards an improved glucose homeostasis | glucose tolerance in ipGTT [1, 6]: improved glucose tolerance | stability (concentration over time) [4]: decreased in concentration much more slowly

O=C(/C=C/c1ccc(O)c(O)c1)c1ccc(O)cc1O [B, Butein]
solubility (solubility): limited solubility | glucose tolerance in ipGTT [1, 5]: did not improve glucose tolerance | glucose tolerance in ipGTT ([1]; Experiment 2: 3.3 mg/kg of each compound orally 1 h before ipGTT, vs vehicle treated HFD mice): no effect on glucose tolerance | stability ([4]; EtOH or DMSO solutions diluted into aqueous buffer at pH7, room temperature): linear (zero order kinetics) conversion of butein to sulfuretin over time | stability ([4]; aqueous buffer pH4): stable | rate of conversion to sulfuretin ([4]; attempts to exclude oxygen): slowed the reaction | stability ([4]; diluted into EtOH and stored under ambient conditions): stable | rate of conversion to sulfuretin ([4]; excluding light and adding a radical inhibitor): no effects on reaction rate
